Experiments:
[1] = target: T1, TYK2-JH2 (aa 575-869, in-house) protein (Homo sapiens, UniProt P29597); assay: TYK2-JH2 biochemical assay (HTRF probe displacement); type: binding; conditions: Biochemical assay; read-out: TYK2-JH2 IC50
T1 construct: TYK2-JH2 (aa 575-869, in-house) protein; made in house
Method in brief: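 Recombinant TYK2-JH2 (0.2 nM) was pre-incubated 0.5 h at room temperature with compounds (10 doses, 5-fold dilution; 500× DMSO stocks from 500 uM) in 20 mM HEPES pH 7.5, 10 mM MgCl2, 0.005% BSA, 2 mM DTT, 0.015% Brij-35. Probe displacement was read by HTRF (ex337, em620/665 nm); IC50 from four-parameter logistic fit.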

[2] = system: JAK2, TYK2/p-STAT4 (Tyr693) activated by IL-12 in NK-92 cell line; assay: IL-12-JAK2, TYK2/p-STAT4 (Tyr693) inhibition IC50 cellular assay; type: cell-based; conditions: for Selectivity fold (TYK2/JAK2): Cellular assay, pSTAT5/GM-CSF IC50 vs pSTAT4/IL-12 IC50; for IC50: NK92, Cellular assay, read-out: pSTAT4/IL-12 IC50
Method in brief: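 NK-92 cells were starved overnight without IL-2 and preincubated 1 h at 37° C with compound (8 doses, 10000–0.61 nM, 4-fold, 0.2% DMSO). They were then stimulated with IL-12 (40 ng/ml final) for 30 min. Lysate p-STAT4 (Tyr693) was read by AlphaLISA SureFire; IC50 from four-parameter logistic fit.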

pSTAT5/GM-CSF = pSTAT5/GM-CSF cellular assay (JAK2 selectivity); type: cell-based
[3] = pSTAT5/GM-CSF IC50 over pSTAT4/IL-12 IC50

T1 sequence (P29597 575-869): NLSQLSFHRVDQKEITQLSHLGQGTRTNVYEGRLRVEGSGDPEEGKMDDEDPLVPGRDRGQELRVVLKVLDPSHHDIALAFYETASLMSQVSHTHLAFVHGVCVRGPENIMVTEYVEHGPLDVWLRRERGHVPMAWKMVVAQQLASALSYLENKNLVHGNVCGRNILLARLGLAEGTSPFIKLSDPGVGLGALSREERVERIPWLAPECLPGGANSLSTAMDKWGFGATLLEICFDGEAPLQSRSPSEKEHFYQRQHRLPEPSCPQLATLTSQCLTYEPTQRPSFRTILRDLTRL

Structure (SMILES)	IC50 [1]	Selectivity fold (TYK2/JAK2) [2]	IC50 [2]	IC50 (pSTAT5/GM-CSF)	Selectivity fold (TYK2/JAK2) (pSTAT5/GM-CSF; [3])	Selectivity fold (TYK2/JAK2) (pSTAT5/GM-CSF; pSTAT5/GM-CSF vs pSTAT4/IL-12)
COCCOc1ccc(-c2cnc(NC(C)=O)cc2Nc2cc(OC)cc(S(C)(=O)=O)n2)nc1 [Example D5, N-(4′-((4-methoxy-6-(methylsulfonyl)pyridin-2-yl)amino)-5-(2-methoxyethoxy)-[2,3′-bipyridin]-6′-yl)acetamide]	0.036 nM	>10101 fold	0.99 nM	> 10000 nM	–	–
CC(=O)Nc1cc(Nc2ccc(F)c(S(C)(=O)=O)n2)c(-c2ccc(C(C)(C)O)cn2)cn1 [Example H34, N-(4′-((5-fluoro-6-(methylsulfonyl)pyridin-2-yl)amino)-5-(2-hydroxypropan-2-yl)-[2,3′-bipyridin]-6′-yl)acetamide]	0.023 nM	>8928 fold	1.12 nM	> 10000 nM	–	–
CC(=O)Nc1cc(Nc2cc(C(F)(F)F)cc(S(C)(=O)=O)c2)c(-c2ccc(C(C)(C)O)cn2)cn1 [Example H3, N-(5-(2-hydroxypropan-2-yl)-4′-((3-(methylsulfonyl)-5-(trifluoromethyl)phenyl)amino)-[2,3′-bipyridin]-6′-yl)acetamide]	0.048 nM	>843 fold	8.52 nM	7180 nM	–	–
CC(=O)Nc1cc(Nc2cc(N3CCOC[C@@H]3C)cc(S(C)(=O)=O)n2)c(-c2ccc(N3C[C@@H](C)O[C@@H](C)C3)cn2)cn1 [Example C23, N-(5-(cis-2,6-dimethylmorpholino)-4′-((4-((S)-3-methylmorpholino)-6-(methylsulfon-yl)pyridin-2-yl)amino)-[2,3′-bipyridin]-6′-yl)ace-tamide]	0.022 nM	4126 fold	0.63 nM	2600 nM	–	–
CC(=O)Nc1cc(Nc2cc(OC(C)C)cc(S(C)(=O)=O)n2)c(-c2ccc(C(F)(F)F)cn2)cn1 [Example F9, N-(4′-((4-isopropoxy-6-(methylsulfonyl)pyridin-2-yl)amino)-5-(trifluoromethyl)-[2,3′-bipyridin]-6′-yl)acetamide]	0.06 nM	> 1834 fold	5.45 nM	> 10000 nM	–	–
COC1CC(Oc2cc(Nc3cc(NC(C)=O)ncc3-c3ccn(C)n3)nc(S(C)(=O)=O)c2)C1 (stereo not shown) [Example J18, N-(4-((4-(3-methoxycyclobutoxy)-6-(methylsulfonyl)pyridin-2-yl)amino)-5-(1-methyl-1H-pyrazol-3-yl)pyridin-2-yl)acetamide]	0.028 nM	–	0.399 nM	> 10000 nM	>25062 fold	–
COc1cc(Nc2cc(NC(C)=O)ncc2-c2ccn(C(C)C)n2)cc(S(C)(=O)=O)c1 [Example M27, N-(5-(1-isopropyl-1H-pyrazol-3-yl)-4-((3-methoxy-5-(methylsulfonyl)phenyl)amino)pyridin-2-yl)acetamide]	0.035 nM	–	3.85 nM	> 10000 nM	>2597 fold	–
CC(=O)Nc1cc(Nc2cccc(S(C)(=O)=O)n2)c(-c2ccc(N3CCOC(C)(C)C3)cn2)cn1 [Example B12, N-(5-(2,2-dimethylmorpholino)-4′-((6-(methylsulfonyl)pyridin-2-yl)amino)-[2,3′-bipyridin]-6′-yl)acetamide]	0.034 nM	824 fold	0.74 nM	610 nM	–	–
CC(=O)Nc1cc(Nc2cc(C)cc(S(C)(=O)=O)n2)c(-c2cc3n(n2)CCOC3)cn1 [Example Q20, N-(5-(6,7-dihydro-4H-pyrazolo[5,1-c][1,4]oxazin-2-yl)-4-((4-methyl-6-(methylsulfonyl)pyridin-2-yl)amino)pyridin-2-yl)acetamide]	0.022 nM	–	0.16 nM	1770 nM	11043 fold	–
CCOc1cc(Nc2cc(NC(C)=O)ncc2-c2ccc(C(C)(C)O)cn2)nc(S(C)(=O)=O)c1 [Example H33, N-(4′-((4-ethoxy-6-(methylsulfonyl)pyridin-2-yl)amino)-5-(2-hydroxypropan-2-yl)-[2,3′-bipyridin]-6′-yl)acetamide]	0.019 nM	>22371 fold	0.777 nM	> 10000 nM	–	–
CC(=O)Nc1cc(Nc2cccc(S(C)(=O)=O)n2)c(-c2ccc(N3CCOCC3=O)cn2)cn1 [Example G2, N-(4′-((6-(methylsulfonyl)pyridin-2-yl)amino)-5-(3-oxomorpholino)-[2,3′-bipyridin]-6′-yl)acetamide]	0.067 nM	–	14.2 nM	> 10000 nM	–	>704 fold
CC(=O)Nc1cc(Nc2cc(C)cc(S(C)(=O)=O)n2)c(-c2ccc(C(C)(C)O)cn2)cn1 [Example H9, N-(5-(2-hydroxypropan-2-yl)-4′-((4-methyl-6-(methylsulfonyl)pyridin-2-yl)amino)-[2,3′-bipyridin]-6′-yl)acetamide]	0.016 nM	3147 fold	0.503 nM	1580 nM	–	–
CC(=O)Nc1cc(Nc2cc(C3CCOCC3)cc(S(C)(=O)=O)n2)c(-c2ccn(C)n2)cn1 [Example J61, N-(5-(1-methyl-1H-pyrazol-3-yl)-4-((6-(methylsulfonyl)-4-(tetrahydro-2H-pyran-4-yl)pyridin-2-yl)amino)pyridin-2-yl)acetamide]	0.019 nM	–	1.42 nM	> 10000 nM	>7042 fold	–
CC(=O)Nc1cc(Nc2cccc(S(N)(=O)=O)n2)c(-c2ccn(C)n2)cn1 [Example J4, N-(5-(1-methyl-1H-pyrazol-3-yl)-4-((6-sulfamoylpyridin-2-yl)amino)pyridin-2-yl)acetamide]	0.028 nM	–	4.94 nM	> 10000 nM	>2024 fold	–
CC(=O)Nc1cc(Nc2nc(S(C)(=O)=O)ccc2C)c(-c2ccc(C(C)(C)O)cn2)cn1 [Example H32, N-(5-(2-hydroxypropan-2-yl)-4′-((3-methyl-6-(methylsulfonyl)pyridin-2-yl)amino)-[2,3′-bipyridin]-6′-yl)acetamide]	0.023 nM	>22371 fold	0.447 nM	> 10000 nM	–	–
COCCOc1ccc(-c2cnc(NC(C)=O)cc2Nc2cccc(S(C)(=O)=O)c2)nc1 [Example D2, N-(5-(2-methoxyethoxy)-4′-((3-(methylsulfonyl)phenyl)amino)-[2,3′-bipyridin]-6′-yl)acetamide]	0.038 nM	>641 fold	15.6 nM	> 10000 nM	–	–
CC(=O)Nc1cc(Nc2cc(OC(C)C)cc(S(C)(=O)=O)n2)c(-c2ccc3c(n2)OCCO3)cn1 [Example Q1, N-(5-(2,3-dihydro-[1,4]dioxino[2,3-b]pyridin-6-yl)-4-((4-isopropoxy-6-(methylsulfonyl)pyridine-2-yl)amino)pyridin-2-yl)acetamide]	0.023 nM	–	1.76 nM	> 10000 nM	>5681 fold	–
COCc1ccc(-c2cnc(NC(C)=O)cc2Nc2cc(COC)cc(S(C)(=O)=O)n2)nc1 [Example E9, N-(5-(methoxymethyl)-4′-((4-(methoxymethyl)-6-(methylsulfonyl)pyridin-2-yl)amino)-[2,3′-bipyridin]-6′-yl)acetamide]	0.022 nM	>19960 fold	0.504 nM	> 10000 nM	–	–
CC(=O)Nc1cc(Nc2cc(-c3cnccc3C#N)cc(S(C)(=O)=O)n2)c(-c2ccc3c(n2)OCC(C)(C)O3)cn1 [Example Q115, N-(4-((4-cyano-6′-(methyslulfonyl)-[3,4′-bipyridin]-2′-yl)amino)-5-(2,2-dimethyl-2,3-dihydro-[1,4]dioxino[2,3-b]pyridin-6-yl)pyridin-2-yl)acetamide]	0.034 nM	–	0.302 nM	> 10000 nM	>33112 fold	–
CC(=O)Nc1cc(Nc2cc(C)cc(S(C)(=O)=O)c2)c(-c2ccc(C(C)(C)O)cn2)cn1 [Example H21, N-(5-(2-hydroxypropan-2-yl)-4′-((3-methyl-5-(methylsulfonyl)phenyl)amino)-[2,3′-bipyridin]-6′-yl)acetamide]	0.024 nM	>4464 fold	2.24 nM	> 10000 nM	–	–
CC(=O)Nc1cc(Nc2cc(OC(F)F)cc(S(C)(=O)=O)c2)c(-c2ccn(C)n2)cn1 [Example J62, N-(4-((3-(difluoromethoxy)-5-(methylsulfonyl)phenyl)amino)-5-(1-methyl-1H-pyrazol-3-yl)pyridin-2-yl)acetamide]	0.037 nM	–	4.85 nM	> 10000 nM	>2061 fold	–
CC(=O)Nc1cc(Nc2cccc(S(C)(=O)=O)c2)c(-c2ccc(C(F)(F)F)cn2)cn1 [Example F2, N-(4′-((3-(methylsulfonyl)phenyl)amino)-5-(trifluoromethyl)-[2,3′-bipyridin]-6′-yl)acetamide]	0.051 nM	>451 fold	22.1 nM	> 10000 nM	–	–
